Reference: ChEMBL document CHEMBL5223180, “Design, Synthesis, and Bioevaluation of Pyrido[2,3-d]pyrimidin-7-ones as Potent SOS1 Inhibitors” (ACS Med Chem Lett, 2023)
pIC50: −log10 of the molar value. Values belong to the molecule of their own block, whether it stands above or below them.

How the values were obtained:
[1] = test system: GTPase KRas (Homo sapiens), P01116 [G12D]; details: dose 10.0 µM
[2] = test system: MIA PaCa-2; assay: cells; details: Homo sapiens, MIA PaCa-2, 168 h
[3] = target: T1, Son of sevenless homolog 1 (Homo sapiens, UniProt Q07889); assay: Inhibition of 6His-tagged SOS1 (unknown origin) mediated GST-tagged KRAS G12D activation preincubated for 15 mins followed by KRAS G12D addition and measured after 30 mins by HTRF assay
T1 sequence (Q07889 whole entry): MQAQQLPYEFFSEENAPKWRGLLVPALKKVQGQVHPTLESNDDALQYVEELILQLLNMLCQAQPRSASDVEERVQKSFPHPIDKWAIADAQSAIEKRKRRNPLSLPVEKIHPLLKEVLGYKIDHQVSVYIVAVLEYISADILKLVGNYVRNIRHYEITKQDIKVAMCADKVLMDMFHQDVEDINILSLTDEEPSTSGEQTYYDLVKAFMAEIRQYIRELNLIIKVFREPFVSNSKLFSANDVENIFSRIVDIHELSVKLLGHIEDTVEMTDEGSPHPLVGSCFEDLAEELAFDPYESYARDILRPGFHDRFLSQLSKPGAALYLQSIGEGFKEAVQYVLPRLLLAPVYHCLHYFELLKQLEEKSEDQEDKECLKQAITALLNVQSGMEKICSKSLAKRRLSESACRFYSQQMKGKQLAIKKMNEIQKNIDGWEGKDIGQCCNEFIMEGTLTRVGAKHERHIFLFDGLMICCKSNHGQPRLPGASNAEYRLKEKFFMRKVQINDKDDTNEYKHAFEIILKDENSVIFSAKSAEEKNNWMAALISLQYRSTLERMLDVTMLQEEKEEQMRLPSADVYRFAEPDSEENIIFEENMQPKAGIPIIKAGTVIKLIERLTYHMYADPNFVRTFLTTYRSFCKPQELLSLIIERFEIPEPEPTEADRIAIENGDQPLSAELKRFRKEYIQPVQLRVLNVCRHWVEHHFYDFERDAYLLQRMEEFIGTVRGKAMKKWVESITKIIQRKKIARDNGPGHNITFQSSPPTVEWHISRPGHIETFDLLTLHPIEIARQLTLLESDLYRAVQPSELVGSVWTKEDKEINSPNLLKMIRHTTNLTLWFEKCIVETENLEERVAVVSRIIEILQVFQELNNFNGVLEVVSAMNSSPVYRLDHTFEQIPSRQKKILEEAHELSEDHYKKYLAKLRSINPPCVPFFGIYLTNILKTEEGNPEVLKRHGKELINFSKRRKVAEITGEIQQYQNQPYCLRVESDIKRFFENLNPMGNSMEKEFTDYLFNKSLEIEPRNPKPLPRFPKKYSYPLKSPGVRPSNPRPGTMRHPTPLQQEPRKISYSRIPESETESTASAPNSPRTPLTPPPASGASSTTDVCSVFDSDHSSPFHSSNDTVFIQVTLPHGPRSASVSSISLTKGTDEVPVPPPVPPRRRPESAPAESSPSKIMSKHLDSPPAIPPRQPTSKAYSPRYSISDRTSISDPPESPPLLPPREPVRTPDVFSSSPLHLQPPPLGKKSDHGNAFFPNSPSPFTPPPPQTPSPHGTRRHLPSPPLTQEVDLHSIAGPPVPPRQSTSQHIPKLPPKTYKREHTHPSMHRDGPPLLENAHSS

[4] = target: Platelet-derived growth factor receptor alpha (Homo sapiens, UniProt P16234); assay: Inhibition of PDGFRalpha (unknown origin)
[5] = target: Epidermal growth factor receptor (Homo sapiens, UniProt P00533); assay: Inhibition of EGFR (unknown origin)
[6] = target: Fibroblast growth factor receptor 1 (Homo sapiens, UniProt P11362); assay: Inhibition of FGFR1 (unknown origin)
[7] = target: Cyclin-dependent kinase 2 (Homo sapiens, UniProt P24941); assay: Inhibition of CDK2 (unknown origin)
[8] = target: Cyclin-dependent kinase 4 (Homo sapiens, UniProt P11802); assay: Inhibition of CDK4 (unknown origin)
[9] = target: Receptor tyrosine-protein kinase erbB-2 (Homo sapiens, UniProt P04626); assay: Inhibition of HER2 (unknown origin)
Receptor tyrosine-protein kinase erbB-2, sequence (P04626 whole entry): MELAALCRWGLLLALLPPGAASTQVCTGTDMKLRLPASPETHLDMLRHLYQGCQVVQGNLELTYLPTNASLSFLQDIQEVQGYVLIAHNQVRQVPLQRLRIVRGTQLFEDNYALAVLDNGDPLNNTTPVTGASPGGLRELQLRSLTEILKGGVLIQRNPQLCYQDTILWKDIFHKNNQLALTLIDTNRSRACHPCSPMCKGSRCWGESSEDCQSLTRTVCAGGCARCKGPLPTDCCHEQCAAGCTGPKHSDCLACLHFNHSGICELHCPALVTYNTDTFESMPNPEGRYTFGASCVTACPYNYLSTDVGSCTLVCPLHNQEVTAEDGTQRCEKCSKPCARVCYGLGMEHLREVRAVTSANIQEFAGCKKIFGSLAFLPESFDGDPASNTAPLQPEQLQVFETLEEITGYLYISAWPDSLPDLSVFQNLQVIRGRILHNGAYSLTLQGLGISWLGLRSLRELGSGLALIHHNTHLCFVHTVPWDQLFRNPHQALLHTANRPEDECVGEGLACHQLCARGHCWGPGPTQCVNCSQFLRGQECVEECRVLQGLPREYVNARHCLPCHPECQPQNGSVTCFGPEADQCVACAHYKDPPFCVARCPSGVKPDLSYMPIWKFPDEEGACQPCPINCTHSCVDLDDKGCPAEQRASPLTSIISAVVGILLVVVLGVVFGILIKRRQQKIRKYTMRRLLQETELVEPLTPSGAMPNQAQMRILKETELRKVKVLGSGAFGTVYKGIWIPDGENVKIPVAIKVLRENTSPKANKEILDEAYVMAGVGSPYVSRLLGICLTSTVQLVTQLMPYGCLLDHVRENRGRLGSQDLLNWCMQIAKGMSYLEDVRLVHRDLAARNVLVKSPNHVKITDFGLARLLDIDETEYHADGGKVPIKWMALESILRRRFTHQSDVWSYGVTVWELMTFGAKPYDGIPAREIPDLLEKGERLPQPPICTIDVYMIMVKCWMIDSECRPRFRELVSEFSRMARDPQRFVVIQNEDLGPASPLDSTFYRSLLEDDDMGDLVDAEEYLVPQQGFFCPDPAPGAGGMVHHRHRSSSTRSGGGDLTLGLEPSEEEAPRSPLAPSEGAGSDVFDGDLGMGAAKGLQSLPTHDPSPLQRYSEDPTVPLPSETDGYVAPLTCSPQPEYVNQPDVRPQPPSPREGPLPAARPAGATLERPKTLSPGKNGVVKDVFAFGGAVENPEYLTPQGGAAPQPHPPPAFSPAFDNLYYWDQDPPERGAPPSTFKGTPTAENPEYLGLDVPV

Epidermal growth factor receptor, sequence (P00533 whole entry): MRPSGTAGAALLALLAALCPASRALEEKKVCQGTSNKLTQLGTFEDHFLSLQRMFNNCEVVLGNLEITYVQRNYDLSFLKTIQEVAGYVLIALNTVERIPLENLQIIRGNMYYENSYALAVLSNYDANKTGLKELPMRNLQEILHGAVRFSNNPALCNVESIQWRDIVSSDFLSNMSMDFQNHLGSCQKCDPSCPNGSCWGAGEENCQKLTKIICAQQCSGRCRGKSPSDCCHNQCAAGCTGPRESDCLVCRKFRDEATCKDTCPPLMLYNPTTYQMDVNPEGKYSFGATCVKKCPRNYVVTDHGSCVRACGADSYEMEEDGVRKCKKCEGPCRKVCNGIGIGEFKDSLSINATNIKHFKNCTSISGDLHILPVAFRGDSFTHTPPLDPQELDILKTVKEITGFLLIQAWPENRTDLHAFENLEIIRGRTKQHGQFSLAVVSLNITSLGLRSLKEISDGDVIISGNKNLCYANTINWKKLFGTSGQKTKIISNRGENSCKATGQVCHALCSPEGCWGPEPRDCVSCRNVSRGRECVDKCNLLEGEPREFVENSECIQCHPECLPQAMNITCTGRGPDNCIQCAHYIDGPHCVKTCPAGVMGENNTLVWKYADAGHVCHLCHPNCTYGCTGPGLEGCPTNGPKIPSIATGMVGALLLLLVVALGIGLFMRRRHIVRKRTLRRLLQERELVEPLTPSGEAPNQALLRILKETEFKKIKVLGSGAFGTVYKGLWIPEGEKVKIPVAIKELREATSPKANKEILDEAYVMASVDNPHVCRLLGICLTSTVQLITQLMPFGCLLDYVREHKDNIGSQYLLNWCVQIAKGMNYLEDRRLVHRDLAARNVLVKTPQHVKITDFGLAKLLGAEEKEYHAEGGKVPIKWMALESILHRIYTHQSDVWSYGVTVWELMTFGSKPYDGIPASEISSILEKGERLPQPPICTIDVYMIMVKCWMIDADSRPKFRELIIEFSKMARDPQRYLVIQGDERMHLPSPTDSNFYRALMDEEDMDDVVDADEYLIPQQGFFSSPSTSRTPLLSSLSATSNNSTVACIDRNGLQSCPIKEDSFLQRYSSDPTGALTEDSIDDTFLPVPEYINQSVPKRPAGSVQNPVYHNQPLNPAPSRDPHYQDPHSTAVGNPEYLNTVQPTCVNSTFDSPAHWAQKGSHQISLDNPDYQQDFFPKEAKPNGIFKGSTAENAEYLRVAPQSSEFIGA
Platelet-derived growth factor receptor alpha, sequence (P16234 whole entry): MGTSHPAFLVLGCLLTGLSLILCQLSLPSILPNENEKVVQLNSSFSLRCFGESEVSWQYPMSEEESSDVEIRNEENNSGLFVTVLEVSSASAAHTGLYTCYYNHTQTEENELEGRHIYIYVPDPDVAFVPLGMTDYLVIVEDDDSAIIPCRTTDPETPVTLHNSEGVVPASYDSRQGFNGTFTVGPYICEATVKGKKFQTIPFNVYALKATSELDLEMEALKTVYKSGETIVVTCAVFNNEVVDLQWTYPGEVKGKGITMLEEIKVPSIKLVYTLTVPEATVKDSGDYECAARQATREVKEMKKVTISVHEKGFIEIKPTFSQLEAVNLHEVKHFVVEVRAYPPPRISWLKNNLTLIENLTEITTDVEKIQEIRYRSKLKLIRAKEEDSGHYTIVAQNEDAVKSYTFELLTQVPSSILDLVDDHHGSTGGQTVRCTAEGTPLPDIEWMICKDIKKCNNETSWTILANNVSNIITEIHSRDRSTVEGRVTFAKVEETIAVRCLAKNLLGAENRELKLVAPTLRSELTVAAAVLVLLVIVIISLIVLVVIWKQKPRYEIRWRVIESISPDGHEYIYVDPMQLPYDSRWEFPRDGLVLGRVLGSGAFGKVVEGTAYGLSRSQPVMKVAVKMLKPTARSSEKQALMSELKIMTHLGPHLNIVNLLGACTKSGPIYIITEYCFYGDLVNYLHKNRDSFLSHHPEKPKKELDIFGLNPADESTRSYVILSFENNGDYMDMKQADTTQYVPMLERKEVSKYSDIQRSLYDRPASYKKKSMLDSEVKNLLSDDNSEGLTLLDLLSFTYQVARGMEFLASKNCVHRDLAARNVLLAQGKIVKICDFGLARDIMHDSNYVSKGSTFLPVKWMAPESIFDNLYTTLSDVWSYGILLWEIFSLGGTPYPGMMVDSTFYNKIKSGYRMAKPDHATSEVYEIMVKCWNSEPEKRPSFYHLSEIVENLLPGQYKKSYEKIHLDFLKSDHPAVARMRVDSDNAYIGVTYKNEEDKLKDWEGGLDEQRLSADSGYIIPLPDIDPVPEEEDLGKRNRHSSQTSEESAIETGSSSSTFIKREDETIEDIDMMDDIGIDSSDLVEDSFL
Cyclin-dependent kinase 4, sequence (P11802 whole entry): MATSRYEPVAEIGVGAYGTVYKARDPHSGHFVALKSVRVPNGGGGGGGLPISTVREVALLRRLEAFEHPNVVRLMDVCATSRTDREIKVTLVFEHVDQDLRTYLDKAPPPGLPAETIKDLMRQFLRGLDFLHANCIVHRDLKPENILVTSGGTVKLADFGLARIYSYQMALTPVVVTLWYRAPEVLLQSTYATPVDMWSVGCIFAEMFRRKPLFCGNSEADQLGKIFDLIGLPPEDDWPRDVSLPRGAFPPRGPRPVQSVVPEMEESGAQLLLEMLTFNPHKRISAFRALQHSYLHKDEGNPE
Fibroblast growth factor receptor 1, sequence (P11362 whole entry): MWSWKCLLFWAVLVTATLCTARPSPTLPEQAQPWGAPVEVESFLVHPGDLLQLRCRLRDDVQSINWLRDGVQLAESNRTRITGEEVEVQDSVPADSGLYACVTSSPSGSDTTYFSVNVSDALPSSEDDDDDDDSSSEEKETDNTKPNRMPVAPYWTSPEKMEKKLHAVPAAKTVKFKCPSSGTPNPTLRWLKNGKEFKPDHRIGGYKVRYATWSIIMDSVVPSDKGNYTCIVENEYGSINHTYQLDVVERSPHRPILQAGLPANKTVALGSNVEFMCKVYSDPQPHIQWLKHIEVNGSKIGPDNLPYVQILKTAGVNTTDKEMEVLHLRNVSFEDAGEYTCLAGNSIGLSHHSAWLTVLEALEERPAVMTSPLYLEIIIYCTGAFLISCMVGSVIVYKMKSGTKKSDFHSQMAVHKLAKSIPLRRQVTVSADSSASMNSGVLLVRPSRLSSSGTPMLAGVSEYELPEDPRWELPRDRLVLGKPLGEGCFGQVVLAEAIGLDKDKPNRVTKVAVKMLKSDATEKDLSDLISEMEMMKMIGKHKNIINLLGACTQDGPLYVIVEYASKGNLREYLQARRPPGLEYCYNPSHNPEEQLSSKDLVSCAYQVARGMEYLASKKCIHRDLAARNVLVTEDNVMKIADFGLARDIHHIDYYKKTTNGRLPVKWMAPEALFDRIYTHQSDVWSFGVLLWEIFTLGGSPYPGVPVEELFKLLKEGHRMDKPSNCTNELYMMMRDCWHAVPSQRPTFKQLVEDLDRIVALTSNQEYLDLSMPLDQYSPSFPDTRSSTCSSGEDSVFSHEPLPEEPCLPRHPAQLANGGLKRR
GTPase KRas (Homo sapiens), P01116 [G12D], sequence (P01116 whole entry G12D, looked up): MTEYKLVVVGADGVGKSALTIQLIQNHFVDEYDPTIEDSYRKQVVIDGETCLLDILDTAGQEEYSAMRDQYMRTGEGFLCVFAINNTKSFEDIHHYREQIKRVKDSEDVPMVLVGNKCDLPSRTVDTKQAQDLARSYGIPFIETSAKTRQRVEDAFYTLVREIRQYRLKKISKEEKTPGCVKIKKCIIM

SMILES: COc1cc2nc(C)nc(N[C@H](C)c3cc(N)cc(C(F)(F)F)c3)c2cc1O[C@H]1CCOC1
ΔTm [1]: 0 °C
pIC50 [2]: 7.52

pIC50 [3]: < 5.30
SMILES: CC(=O)Nc1cc2c(N[C@H](C)c3cc(N)cc(C(F)(F)F)c3)ncnc2n(C)c1=O

pIC50 [4]: < 5.00
pIC50 [5]: < 5.00
pIC50 [6]: < 5.00
pIC50 [7]: < 5.00
pIC50 [8]: < 5.00
pIC50 [9]: < 5.00
SMILES: CC(=O)N1CCC(c2cc3c(N[C@H](C)c4cc(N)cc(C(F)(F)F)c4)nc(C)nc3n(C)c2=O)CC1

pIC50 [3]: < 5.30
SMILES: C[C@@H](Nc1ncnc2c1cc(N)c(=O)n2C)c1cc(N)cc(C(F)(F)F)c1

pIC50 [3]: < 5.30
SMILES: C[C@@H](Nc1ncnc2c1cc(NC1CCCCC1)c(=O)n2C)c1cc(N)cc(C(F)(F)F)c1

pIC50 [3]: < 5.30
SMILES: CC(=O)N1CCC(c2cc3c(Nc4cccc(C(F)(F)F)c4)ncnc3n(C)c2=O)CC1

pIC50 [3]: < 5.30
SMILES: C[C@@H](Nc1ncnc2c1ccc(=O)n2C)c1cc(N)cc(C(F)(F)F)c1
